# “And” between values parts separate entries of the source, which are not always exact repeats. Equal entries are not always repeated. “Also recorded” adds a separate entry of the source.
# Legend:
# [1] = Spectrophoto/fluorometric characterization of PA-VSD in lipid vesicle suspension (valinomycin/gramicidin); type: physicochemical; conditions: for fluorescence quenching (fractional change in fluorescence) upon valinomycin polarization: 9 μM concentration, emission 825 nm
# Procedure: Lipid vesicles were prepared from 25-mg soybean phosphatidylcholine (type II) suspended in 1 mL of K^+ buffer, which contains 100 mM K2SO4 and 20 mM HEPES. […] A Na^+ buffer containing 100 mM Na2SO4 and 20 mM HEPES was prepared. During experiments, 10 μL of vesicle suspension was added to 1 mL of Na^+ buffer, resulting in an approximately 100:1 K^+ gradient across vesicle membrane. VSD was added to this suspension. When 2.5 μL of 10 μM valinomycin—a K^+ specific ionophore—was added, K^+ ions were transported from inside to outside of vesicle membranes, resulting in a negative membrane potential. This negative potential drives the positively charged VSDs into the vesicles, which causes aggregation of dyes and quenching of fluorescence. Subsequent addition of 2.5 μL of 1 mM gramicidin, a nonspecific monovalent cation ionophore, allows Na^+ cations to move from outside to inside of vesicle membranes to short circuit the membrane potential.
# A combined spectrophoto/fluorometer system (Spectramax i3x, Molecular Devices) was used to measure both fluorescence and absorbance of the PA-VSD with 1, 3, 6, and 9 μM concentrations. For fluorescence, the measurement was conducted for the spectral range from 750 to 850 nm at 10-nm increment, and the absorbance was measured in the range from 600 to 900 nm at 5-nm increments. Note that 720-nm wavelength was used for excitation during spectrofluorometry of the PA-VSD.
# [2] = Photoacoustic characterization of PA-VSD in lipid vesicle phantom; type: physicochemical; conditions: 800 nm; for fractional PA intensity change upon polarization: 20 samples
# Procedure: Lipid vesicles were prepared from 25-mg soybean phosphatidylcholine (type II) suspended in 1 mL of K^+ buffer, which contains 100 mM K2SO4 and 20 mM HEPES. This suspension was vortexed for 10 min and sonicated in bath-type sonicator for 60 min, yielding a translucent vesicle suspension. A Na^+ buffer containing 100 mM Na2SO4 and 20 mM HEPES was prepared. During experiments, 10 μL of vesicle suspension was added to 1 mL of Na^+ buffer, resulting in an approximately 100:1 K^+ gradient across vesicle membrane. VSD was added to this suspension. When 2.5 μL of 10 μM valinomycin—a K^+ specific ionophore—was added, K^+ ions were transported from inside to outside of vesicle membranes, resulting in a negative membrane potential. This negative potential drives the positively charged VSDs into the vesicles, which causes aggregation of dyes and quenching of fluorescence. Subsequent addition of 2.5 μL of 1 mM gramicidin, a nonspecific monovalent cation ionophore, allows Na^+ cations to move from outside to inside of vesicle membranes to short circuit the membrane potential.
# The PA sensing system was employed for the characterization of the synthesized PA-VSD (FIG. 3); Q-switched Nd:YAG laser integrated with an optical parametric oscillator (Phocus Inline and MagicPrism, Opotek Inc.) was used for PA signal generation. With the tunability of the laser system, the spectral responses for near-infrared wavelengths (i.e., 700 to 850 nm at 10-nm interval) were scanned with 20-Hz pulsed repetition frequency and […]. The light was delivered through an optical fiber bundle with a 9-mm round shaped output, which was aligned with an ultrasound receiver. The PAVSD in the lipid vesicles suspension was loaded into transparent tubes with 1.27-mm diameter (AAQ04133, Tygon®, SaintGobain Corp.), which were located at around 30 mm depth in the water tank. Note that the temperature of the water was consistently maintained at 22° C. during the experiments. A 10-MHz linear ultrasound probe (L 14-5/38, Ultrasonix Corp.) was used for PA-VSD sensing in a practical circumstance with a limited bandwidth (i.e., 75%-6 dB fractional bandwidth). Similarly, a hydrophone with wide flat bandwidth from 250 kHz to 20 MHz (HGL-1000, Onda Corp., California) was used to collect single line radio-frequency (RF) PA pressure signal. Twenty sets of PA data were collected, in which 19 of them were collected using the linear array transducer, and the other was through the hydrophone, and the average and standard deviation values were calculated. The PA signals acquired at the depth of target were used to form an averaged RF signal, which is further processed to present PA intensity at each optical wavelength; this permitted an accurate correlation with the spectrophotometric measurements. For the imaging setup, one set of data was obtained using the linear array transducer from 9 μM PA-VSD at 800-nm optical wavelength, and the difference between the resting and polarized states was analyzed.
# [3] = in vivo; cited from earlier work
# [4] = system: rat brain motor cortex; experiment: Transcranial PA imaging of chemoconvulsant (PTZ) seizure neural activity; type: in vivo, Sprague Dawley rats; conditions: for neural activity index (fractional change vs baseline): baseline 1.00±0.20
# Excerpt: (§1) 2.5.1 Photoacoustic imaging setup. For the recording of electrophysiological brain activities in vivo, an ultrasound research system was utilized that consisted of ultrasound array transducer (L 14-5/38) connected to a real-time data acquisition system (SonixDAQ, Ultrasonix Medical Corp., Canada). To induce the PA signals, pulsed laser light was generated by a second-harmonic (532 nm) Nd:YAG laser pumping an optical parametric oscillator (OPO) system (Phocus Inline, Opotek Inc., USA). The tunable range of the laser system was 690-900 nm and the maximum pulse repetition frequency was 20 Hz. The laser pulse was delivered into the probe through bifurcated fiber optic bundles, each 40 mm long and 0.88 mm wide. The PA probe was located at around the Interaural 11.2 mm and Bregma 2.2 mm to obtain the cross-section of motor cortexes (FIG. 15). The energy density at skin surface was only 3.5 mJ/cm^2, which is far below the ANSI safety limit restricting the 5-ns pulsed laser exposure at 700-1400 nm of wavelength range to be lower than 20 mJ/cm^2. 2.5.2 Lipid vesicle phantom preparation for VSD validation. The lipid vesicle model was prepared using the same procedure as in Zhang et al (Zhang, et al., 2017); 25-mg soybean phosphatidyl-choline (type II) suspended in 1 mL of K^+ buffer was used as the lipid vesicles. This vesicle contains 100 mM K2SO4 and 20 mM HEPES. The suspension was vortexed for 10 min, and followed by 60 min of sonication within bath-type sonicator to yield a translucent vesicle suspension. A Na^+ buffer was also prepared, which contains 100 mM Na2SO4 and 20 mM HEPES. Afterwards, approximately a 100:1 K^+ gradient across vesicle membrane was established with 10 μL of lipid vesicle suspension added to 1 mL of Na^+ buffer. In the vesicle phantom prepared, negative membrane potential (polarized state) was mimicked by adding 2.5 μL of 10 μM valinomycin—a K^+ specific ionophore, thereby K^+ ions were transported from inside to outside of vesicle membranes.
# 2.5.4 Animal preparation. For the proposed in vivo experiments. […]
# [5] = system: rat motor cortex; experiment: VSD toxicity study, EEG during direct cortical application via cranial window; type: in vivo
# Procedure: 2.5.10 Validation of protocol for using sub-dermal EEG electrodes to determine toxic CNS effects of VSDs. VSDs effect on EEG signal from sub-dermal scalp electrodes was investigated in a pilot by direct cortical applications of increasing concentrations of VSDs in anesthetized rat with limited craniotomies while recording synchronous vEEGs (FIG. 21).
# Increasing concentrations of VSD were tested in the same rat at temporally spaced time-points. Rats were anesthetized with IP injection to ketamine/xylazine and a cranial window made over the right motor cortex. After recording a baseline EEG in the rat for 10-min duration with the craniotomy, the follow-on EEG recording continued to record EEG following application of increasing concentrations of vehicle alone and VSD+ vehicle for the same duration of EEG recordings (i.e., 10 min) allowing comparisons of EEG responses to each increasing gradient of VSD on cortical activity as compared to baseline EEG signature in the same rat.
# [6] = Spectrophotometric measurements of near-infrared VSD in lipid vesicle phantom; type: physicochemical
# Excerpt: as §1, with “Afterwards, approximately a 100:1 K^+ gradient across vesicle membrane was established with 10 μL of lipid vesicle suspension added to 1 mL of Na^+ buffer. In the vesicle phantom prepared, negative membrane potential (polarized state) was mimicked by adding 2.5 μL of 10 μM valinomycin—a K^+ specific ionophore, thereby K^+ ions were transported from inside to outside of vesicle membranes.” left out
# Otherwise, 2.5 μL of 1 mM gramicidin, a nonspecific monovalent cation ionophore, enables Na+ cations to move from outside to inside of vesicle membranes to short circuit the membrane potential (depolarized state). From these controls, our near-infrared VSD positively charged can move in and out through the vesicle membrane, leading to the change in fluorescence quenching depending on their aggregation status.
# [7] = system: rat motor cortex; experiment: EEG validation of seizure activity in the in vivo protocol; conditions: IV VSD treatment; anesthetized rats
# Procedure: 2.5.9 EEG validation of neural seizure activity. To obtain the EEG records of electrical spike discharges that originated from motor cortex shown in FIG. 14, sub-dermal scalp EEG recording electrodes were located at the corresponding locations on motor cortex indicated by Xs in FIG. 21A, the schematic of the rat cranium (three electrodes, 1 recording and 1 reference over motor cortex, 1 ground electrode over rostrum). The EEG signal at motor cortex was recorded with the identical preparation procedures in PA imaging including animal preparation, administration of IR780, Lexiscan, and PTZ, time duration for recording, and interval between sequences in the protocol. Data acquisition was done using Sirenia software (Pinnacle Technologies Inc., Kansas, USA) with synchronous video capture. […] The files were stored in .EDF format and scored manually for protocol stages using real time annotations added to the recording during the experiments.
# [8] = system: blood-brain barrier (BBB); experiment: PA intensity monitoring of VSD penetration through BBB with regadenoson; type: in vivo, rat; conditions: brain tissue region; intravenous; last 2 min (8-10 min), 480 time points
# Procedure: (Carman, et al., 2011) For preliminary studies, the dosage and IV administration method indicated by the manufacturer was utilized. A volume of 150 μl of the standard concentration of 0.08 mg/1 ml was given to each animal regardless of the weight, followed by 150 μl flush of 0.9% sodium chloride for injection. VSD penetration was expected during the Lexiscan's biological half-life, i.e., 2-4 minutes, thereby the experimental protocol was designed based on the pharmacological assumption. In vivo experimental protocol. The in vivo protocols were respectively designed for three experimental groups: negative control, control, and seizure groups. […] Note that each data acquisition was performed for 10 min to cover the biological half-life of Lexiscan (2-3 min). Each dosing protocol of Lexiscan and VSD was as follows: through the jugular vein catheter port located in the neck, 150 μl of Lexiscan 0.4 mg/5 ml concentration was injected, and 300 μl of VSD was subsequently administrated at 0.1 mg/ml concentration, followed by 150 μl of saline solution flush. […] The negative control group was designed to validate the incapability of Lexiscan and PTZ to generate any bias on PA neural activity detection by excluding VSD administration. […]
# [9] = Photoacoustic measurement and quantum yield estimation of near-infrared VSD in lipid vesicle phantom; type: physicochemical; conditions: for PA intensity decrease in depolarization state compared to polarized state (pure VSD contrast): 790 nm
# Excerpt: as §1
# Otherwise, 2.5 μL of 1 mM gramicidin, a nonspecific monovalent cation ionophore, enables Na+ cations to move from outside to inside of vesicle membranes to short circuit the membrane potential (depolarized state).
# 2.5.3 Estimation of quantum yield change of VSD. The quantum yields of the near-infrared VSD in depolarized states […] were estimated based on the Eq. 8 and 9 disclosed previously. […] The quantum yield in the polarized state (ΦF) were also estimated by compensating for the absorbance and fluorescence emission changes when depolarized: ΦF=(CF/Cabs)Φ′F.
# [10] = direct cortical application, 100×
# [11] = estimated with theoretical model
smiles,measurement,setting,value
CCN1/C(=C/C=C/C=C/C=C/C2=[N+](CC)c3ccc4ccccc4c3C2(C)C)C(C)(C)c2c1ccc1ccccc21.[I-] [PAVSD800-2],fluorescence quenching (fractional change in fluorescence) upon valinomycin polarization,[1],up to 49%
same,fluorescence quenching (fractional change in fluorescence) upon valinomycin polarization,[1]; listed as PA-VSD,49%
same,fluorescence emission,[1]; in the presence of lipid membranes,828 nm
same,fractional PA intensity change upon polarization,[2]; 1 μM,17%
same,fractional PA intensity change upon polarization,[2]; 3 μM,24%
same,fractional PA intensity change upon polarization,[2]; 6 μM,17%
same,PA intensity increase in the polarized state,"[2]; 6 μM, typical experiment",14%
same,fractional PA intensity change upon polarization,[2]; 9 μM,17%
same,fractional change of PA signals,"[2]; 9 μM, dataset chosen for reconstructed PA images",22.72%
"CNC(=O)c1cnn(-c2nc(N)c3ncn([C@@H]4O[C@H](CO)[C@@H](O)[C@H]4O)c3n2)c1 [Lexiscan, regadenoson]",biological half-life,[3],2-4 min and 2-3 min
same,neural activity index,"[4]; negative control group without VSD, Lexiscan+/PTZ−",0.92±0.23
"CCCN1/C(=C/C=C2\CCCC(/C=C/C3=[N+](CCC)c4ccccc4C3(C)C)=C2Cl)C(C)(C)c2ccccc21.[I-] [IR780, IR780 perchlorate]",course of EEG suppression,"[5]; 100×, over the 10-min recording period",recovered to baseline
same,EEG effect of 100× solution,[5]; [10],significant EEG background suppression
same,rats with significant EEG background suppression,[5]; [10],4/6
same,effect on baseline EEG,"[5]; direct cortical application, lower concentrations, 10-min recordings",no effect in altering the baseline EEG; also recorded: remained unaltered
same,peak absorbance,[6],790 nm
same,absorbance change between polarized and depolarized states,[6]; valinomycin and gramicidin,3%
same,fluorescence emission change between polarized and depolarized states,[6]; valinomycin and gramicidin,40.1%
same,PTZ evolution of status on EEG,[7],did not alter
same,neural activity index (fractional change vs baseline),"[4]; control group (VSD+Lexiscan, no PTZ)",0.93±0.25
same,neural activity index (fractional change vs baseline),"[4]; seizure group (VSD+Lexiscan+PTZ), motor cortex, 790 nm",2.40±0.42
same,"fractional increase of PA intensity from the natural condition (VSD−, Lexiscan−)",[8],1.09±0.09
same,PA intensity decrease in depolarization state compared to polarized state (pure VSD contrast),[9],12.3±6.7%
same,PA intensity decrease in depolarization state compared to polarized state (pure VSD contrast),[9]; listed as VSD,12.3% and 12.22%
same,quantum yield in the depolarized state,[9]; [11],0.28±0.10
same,quantum yield in the polarized state,[9]; [11],0.17±0.06

# Reference: patent US20210393807A1, “PHOTOACOUSTIC VOLTAGE-SENSITIVE DYES FOR IN VIVO IMAGING” (The Johns Hopkins University, priority 2016, published 2021)
